The record followed here is patent US11279735B2, “Cyclic peptide antibiotics” (priority 2017, dated 2022).

In brackets after ≈: the same amount, converted by molar mass. Several values for one entry are separate records, joined by “and”; a condition that tells them apart may be missing. Equal values may be shown once.

One assay deals with Escherichia coli (E. coli) strain CFT073 ATCC 700928. It counts as cell-based. The settings on record: ATCC 700928, 22 h. The procedure: In vitro antimicrobial activity of each compound was determined by measuring minimal inhibitor concentrations (MICs) using the broth micro-dilution technique as approved by the Clinical and Laboratory Standards Institute (CLSI) (Methods for Dilution Antimicrobial Susceptibility Tests for Bacteria that Grow Aerobically; Approved Standard—Eighth Edition. CLSI document M07-A8. Wayne, Pa.: Clinical and Laboratroy Standards; 2009). Antibacterial activity was measure against Escherichia coli (E. coli) strain CFT073 ATCC 700928, which is a clinically relevant Gram-negative strain. Cells were inoculated onto plates of Mueller Hinton Agar and grown at 37° C. for 16-18 hours. Inocula suspensions were prepared by scraping cells into 1 mL of testing media (Mueller Hinton II cation adjusted Broth supplemented with 0.002% v/v Tween-80) and diluting to a final OD600 nm of 0.01.
Test compounds were prepared in DMSO at a concentration of 100 uM The compounds were tested under several different dilution formats and the data are reported in Tables 6, 7 and 8. In protocol 1, the compound stocks were diluted into testing media at a concentration of 64 μg/ml and serial 2-fold dilutions were made in the same media, in 96-well U bottom microtiter dishes, for a total of 10 compound concentrations. In protocol 2, the compound stocks were diluted into testing media at a concentration of 4 μg/mL and serial 2-fold dilutions were made in the same media, in 96-well U bottom microtiter dishes, for a total of 10 compound concentrations. In protocol 3, compound stocks were diluted into testing media at a concentration of 0.5 μg/mL, with serial 2-fold dilutions conducted as described above. In protocol 4, compound stocks were diluted into testing media at a concentration of 0.13 μg/mL, with serial 2-fold dilutions conducted as described above. Inocula suspensions were added to the 2-fold serial dilutions of test compounds to a final density of OD OD600 nm of 0.0005 and incubated at 35° C. for 22 hours.
The molecule `CCCCCCCCCC[C@H]1OC(=O)CNC(=O)[C@H]([C@H](C)O)NC(=O)[C@H](CN)NC(=O)[C@H]([C@H](C)CC)NC(=O)[C@H](CC2CC2)N(C)C(=O)[C@@H]1C` [Example 2, (6S,9S,12S,15S,18R,19R)-9-(aminomethyl)-12-((R)-sec-butyl)-15-(cyclopropylmethyl)-19-decyl-6-((S)-1-hydroxyethyl)-16,18-dimethyl-1-oxa-4,7,10,13,16-pentaazacyclononadecane-2,5,8,11,14,17-hexaone] returned an MIC of 3.1 µM (≈ 2.2 µg/mL).
Same read-out and setting: in the case of `CCCCCCCCCC[C@H]1OC(=O)[C@H](C)NC(=O)[C@H]([C@H](C)O)NC(=O)[C@H](CN)NC(=O)[C@H]([C@H](C)CC)NC(=O)[C@H](CC(C)C)N(C)C(=O)[C@@H]1C` [Example 3, (3S,6S,9S,12S,15S,18R,19R)-9-(aminomethyl)-12-((R)-sec-butyl)-19-decyl-6-((S)-1-hydroxyethyl)-15-isobutyl-3,16,18-trimethyl-1-oxa-4,7,10,13,16-pentaazacyclononadecane-2,5,8,11,14,17-hexaone] it was 3.1 µM (≈ 2.25 µg/mL); in that of `CCCCCCCCCC[C@H]1OC(=O)[C@@H](C)NC(=O)[C@H]([C@H](C)O)NC(=O)[C@H](CO)NC(=O)[C@H]([C@@H](C)CC)NC(=O)[C@H](CC(C)C)N(C)C(=O)[C@@H]1C` [Example 4, (3R,6S,9S,12S,15S,18R,19R)-12-((S)-sec-butyl)-19-decyl-6-((S)-1-hydroxyethyl)-9-(hydroxymethyl)-15-isobutyl-3,16,18-trimethyl-1-oxa-4,7,10,13,16-pentaazacyclononadecane-2,5,8,11,14,17-hexaone], 13 µM (≈ 9.44 µg/mL).
In turn, `CCCCCCCCCC[C@H]1OC(=O)CNC(=O)[C@H](CO)NC(=O)[C@H](CO)NC(=O)[C@H](C2CCCCC2)NC(=O)[C@H](CC(C)C)N(C)C(=O)[C@@H]1C` [Example 7, (6S,9S,12S,15S,18R,19R)-12-cyclohexyl-19-decyl-6,9-bis(hydroxymethyl)-15-isobutyl-16,18 dimethyl-1-oxa-4,7,10,13,16-pentazacyclononadecane-2,5,8,11,14,17-hexone] showed an MIC of 3.1 µM (≈ 2.24 µg/mL).
On the same count and under the same terms, in the case of `CCCCCCC[C@H]1OC(=O)CNC(=O)[C@H]([C@H](C)O)NC(=O)[C@H](CO)NC(=O)[C@H]([C@H](C)CC)NC(=O)[C@H](CC(C)C)N(C)C(=O)[C@@H]1CC` [Example 8, (6S,9S,12S,15S,18R,19R)-12-((R)-sec-Butyl)-18-ethyl-9-heptyl-6-((S)-1-hydroxyethyl)-9-(hydroxymethyl)-15-isobutyl-16-methyl-1-oxa-4,7,10,13,16-pentaazacyclononadecane-2,5,8,11,14,17-hexaone] it was 25 µM (≈ 17.1 µg/mL); in that of `CCCCCC[C@H]1OC(=O)CNC(=O)[C@H]([C@H](C)O)NC(=O)[C@H](CO)NC(=O)[C@H]([C@H](C)CC)NC(=O)[C@H](CC(C)C)N(C)C(=O)[C@@H]1CCCc1ccc(C)cc1` [Example 9, (6S,9S,12S,15S,18R,19R)-12-((R)-sec-butyl)-19-hexyl-6-((S)-1-hydroxyethyl)-9-(hydroxymethyl)-15-isobutyl-16-methyl-18-(3-(p-tolyl)propyl)-1-oxa-4,7,10,13,16-pentaazacyclononadecane-2,5,8,11,14,17-hexaone], 6.3 µM (≈ 4.88 µg/mL).

Staying with this assay, now noted: E. coli CFT073 ATCC 700928; Mueller Hinton II cation adjusted Broth with 0.002% v/v Tween-80; 35° C. for 22 hours; lowest concentration that completely prevented bacterial growth.
In the case of `CCCCCCCCCC[C@H]1OC(=O)CNC(=O)[C@H](CO)NC(=O)[C@H](CO)NC(=O)[C@H]([C@H](C)CC)NC(=O)[C@H](CC(C)C)N(C)C(=O)[C@@H]1C` [Example 5, (6S,9S,12S,15S,18R,19R)-12-((R)-sec-butyl)-19-decyl-6,9-bis(hydroxymethyl)-15-isobutyl-16,18-dimethyl-1-oxa-4,7,10,13,16-pentaazacyclononadecane-2,5,8,11,14,17-hexaone], the MIC was 4.7 µM and 3.1 µM.

Usually MIC stands for the least concentration at which growth counts as inhibited. High values mean a need for much substance, low ones inhibition by little substance.
